Experimental data as given in patent EP4692094A1 (Beijing Konruns Pharmaceutical Co., Ltd., priority 2023, dated 2024).

Assays:
[1] = target: T1, KAT5 (Homo sapiens, UniProt Q92993); assay: Enzymatic activity assay for KAT5 acetyltransferase (TR-FRET, histone substrate H4); assay type: biochemical; details: KAT5 1.5 nM, H4 200 nM, AcCOA 2 µM
T1 construct: purchased signalChem K314-380G
Experimental: The acetylation effects of KAT6B on histone substrate H3, as well as KAT5, KAT7, and KAT8 on histone substrate H4, were determined using the TR-FRET (time-resolved fluorescence resonance energy transfer) method. The determination was performed according to experimental procedures similar to those in "Pharmacological Experiment I": 1.2 Preparation of compounds: The compounds prepared in the examples were each dissolved in dimethylsulfoxide to give solutions at a concentration of 10 mmol/L. • 1) The compounds in the examples were each diluted from 10 mmol/L stock solution to 0.2 mmol/L, i.e., 1 µL of the compound was added to 49 µL of DMSO, and 3-fold dilution was performed to give 10 concentrations. • 2) 50 nL of the test compounds were transferred to 384 reaction plates using Echo, two replicates for each compound, and the plates were centrifuged at a rotation speed of 1000 rpm for 1 min, the final concentration of dimethylsulfoxide (DMSO) being 0.5%. […]
(§1) For KAT8: • 3) 2.5 µL of the KAT8 enzyme solution at a final concentration of 10 nM was added to the 384 reaction plates in step 2), and the plates were centrifuged at 1000 rpm for 1 min and incubated at 25 °C for 10 min. • 4) 2.5 µL of […] at a final concentration of 300 nM and an AcCOA (acetyl-CoA) reaction solution at a final concentration of 2 µM were added to the 384 reaction plates in step 3), and the plates were centrifuged at a rotation speed of 1000 rpm for 1 min and incubated at 25 °C for 90 min. • 5) 5 µL of Eu-Ab& Ulight-SA detection solution was separately added to the 384 reaction plates in step 4) of the 4 groups described above, and the plates were centrifuged at 1000 rpm for 1 min and incubated at 25 °C for 60 min. • 6) The HTRF […] signals were read using a BMG high-throughput drug-screening multi-mode microplate reader.
(§2) The acetylation levels of the histones in the groups were analyzed by the GraphPad Prism 8 software. […]

[2] = target: T2, KAT8 (Homo sapiens, UniProt Q9H7Z6); assay: Enzymatic activity assay for KAT8 acetyltransferase (TR-FRET); assay type: biochemical; details: KAT8 10 nM, AcCOA 2 µM
T2 construct: purchased active motife (Active Motif) 81225
T2 sequence (Q9H7Z6 1-458): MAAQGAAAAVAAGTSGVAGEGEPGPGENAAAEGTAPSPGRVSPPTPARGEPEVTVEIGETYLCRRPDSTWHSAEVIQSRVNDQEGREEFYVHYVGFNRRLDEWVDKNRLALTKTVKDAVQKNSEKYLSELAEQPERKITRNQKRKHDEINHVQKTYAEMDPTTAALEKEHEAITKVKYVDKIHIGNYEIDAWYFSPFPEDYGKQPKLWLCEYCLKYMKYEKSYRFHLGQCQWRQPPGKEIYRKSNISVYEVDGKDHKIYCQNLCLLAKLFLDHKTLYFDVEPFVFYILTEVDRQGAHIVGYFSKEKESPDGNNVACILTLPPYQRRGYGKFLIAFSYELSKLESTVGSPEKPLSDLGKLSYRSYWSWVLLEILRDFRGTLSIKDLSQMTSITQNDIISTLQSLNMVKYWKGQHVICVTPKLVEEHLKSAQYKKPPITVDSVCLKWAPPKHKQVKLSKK
Experimental: The acetylation effects of KAT6B on histone substrate H3, as well as KAT5, KAT7, and KAT8 on histone substrate H4, were determined using the TR-FRET (time-resolved fluorescence resonance energy transfer) method. The determination was performed according to experimental procedures similar to those in "Pharmacological Experiment I": 1.2 Preparation of compounds: The compounds prepared in the examples were each dissolved in dimethylsulfoxide to give solutions at a concentration of 10 mmol/L. • 1) The compounds in the examples were each diluted from 10 mmol/L stock solution to 0.2 mmol/L, i.e., 1 µL of the compound was added to 49 µL of DMSO, and 3-fold dilution was performed to give 10 concentrations. • 2) 50 nL of the test compounds were transferred to 384 reaction plates using Echo, two replicates for each compound, and the plates were centrifuged at a rotation speed of 1000 rpm for 1 min, the final concentration of dimethylsulfoxide (DMSO) being 0.5%.
as §1, §2

[3] = target: T3, CYP2D6 (Homo sapiens, UniProt P10635); assay: Inhibitory effect on P450 enzymes in vitro (human liver microsomes), CYP2D6; assay type: in vitro ADME; details: probe dextromethorphan, final concentration 10 µM, substrate dextromethorphan, read-out: % inhibition rate CYP2D6 (dextromethorphan)
T3 construct: from tissue; host or cells: human liver microsomes
T3 sequence (P10635 whole entry): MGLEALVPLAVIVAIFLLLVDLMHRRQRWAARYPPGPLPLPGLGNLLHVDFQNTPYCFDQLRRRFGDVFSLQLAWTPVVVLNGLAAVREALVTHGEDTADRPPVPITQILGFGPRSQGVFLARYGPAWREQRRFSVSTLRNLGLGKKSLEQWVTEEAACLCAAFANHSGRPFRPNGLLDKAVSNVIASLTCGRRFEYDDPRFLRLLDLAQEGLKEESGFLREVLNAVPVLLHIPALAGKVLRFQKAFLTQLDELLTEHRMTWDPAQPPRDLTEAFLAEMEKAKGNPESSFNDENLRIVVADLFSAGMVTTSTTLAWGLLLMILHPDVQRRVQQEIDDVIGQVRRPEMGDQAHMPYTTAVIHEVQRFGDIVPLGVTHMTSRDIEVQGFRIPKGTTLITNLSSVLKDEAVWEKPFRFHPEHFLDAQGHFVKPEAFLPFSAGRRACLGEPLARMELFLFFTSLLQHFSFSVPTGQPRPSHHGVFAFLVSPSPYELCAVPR
Experimental: (§3) 1.1 Preparation of compounds: The compounds prepared in the examples were each dissolved in dimethylsulfoxide to give solutions at a concentration of 2 mmol/L.
(§4) 1.2 Test methods: • 1) Incubation system: human liver microsomes, a MgCl2 solution, a phosphate buffer solution, and a substrate solution were each added a 96-well deep-well plate and mixed homogenously. In the final incubation system, the concentration of the human liver microsomes was 0.2 mg/mL, and the final concentrations of the MgCl2 solution and the phosphate buffer solution were 5 mM and 100 mM, respectively. • 2) 1 µL of the substrate solution was added to the incubation system, and the final concentrations of CYP1A2 phenacetin, 2C8 paclitaxel […], 2C19 mephenytoin, 2D6 midazolam, and 3A midazolam substrates were 40 µM (phenacetin), 5 µM (paclitaxel), 50 µM (mephenytoin), 10 µM (mephenytoin), 5 µM (midazolam), and 50 µM […], respectively. • 3) 1 µL of the example compound or vehicle (DMSO) was added to the incubation system, and the incubation system was pre-warmed for 5 min in a 37 °C water bath before starting the reaction with 20 µL of 10 mM NADPH solution.
(§5) 1.3 Sample treatment: Within the designated time (20 min for phenacetin, 10 min for paclitaxel, 20 min for mephenytoin, 20 min for dextromethorphan, 5 min for midazolam, and 10 min for testosterone), 400 µL of methanol containing the internal standard was added to terminate the reaction, and the mixture was vortexed and mixed homogeneously. Then, the deep-well plate was centrifuged at 3220 g and 4 °C for 40 min. 100 µL of the supernatant was transferred into a new plate, and 150 µL of purified water was added. The mixture was mixed homogenously for LC-MS/MS analysis. Table 11. Inhibitory effects of some compounds in the examples on CYP enzymes

[4] = test system: CYP3A; assay: Inhibitory effect on P450 enzymes in vitro (human liver microsomes), CYP3A; assay type: in vitro ADME; details: final concentration 10 µM; for inhibition at 5 min, 10 µM: probe midazolam, substrate midazolam, read-out: % inhibition rate CYP3A (midazolam); for inhibition at 10 min, 10 µM: probe testosterone, substrate testosterone, read-out: % inhibition rate CYP3A (testosterone)
Experimental: as §3, §4, §5

T1 sequence (Q92993 whole entry): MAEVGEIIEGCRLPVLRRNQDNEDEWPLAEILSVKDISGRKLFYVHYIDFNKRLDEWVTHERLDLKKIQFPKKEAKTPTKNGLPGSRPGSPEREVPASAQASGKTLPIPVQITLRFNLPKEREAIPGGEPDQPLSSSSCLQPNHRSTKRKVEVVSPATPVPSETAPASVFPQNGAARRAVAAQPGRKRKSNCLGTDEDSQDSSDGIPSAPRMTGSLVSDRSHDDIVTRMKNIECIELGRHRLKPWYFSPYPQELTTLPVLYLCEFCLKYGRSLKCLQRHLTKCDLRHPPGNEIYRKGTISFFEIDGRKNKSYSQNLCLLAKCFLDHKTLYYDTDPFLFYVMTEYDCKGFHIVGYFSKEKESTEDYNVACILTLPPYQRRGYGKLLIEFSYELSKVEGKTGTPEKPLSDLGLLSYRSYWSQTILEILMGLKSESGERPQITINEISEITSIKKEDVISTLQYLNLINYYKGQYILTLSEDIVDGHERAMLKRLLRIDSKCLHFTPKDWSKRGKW

Compound	IC50 [1] [µM]	IC50 [2] [µM]	inhibition at 20 min, 10 µM [3] [%]	inhibition at 5 min, 10 µM [4] [%]	inhibition at 10 min, 10 µM [4] [%]
COc1ccc2ccoc2c1S(=O)(=O)Nc1noc2cc(Cn3cccn3)nc(OC)c12 [Example 10, N-(6-((1H-Pyrazol-1-yl)methyl)-4-methoxyisoxazolo[4,5-c]pyridin-3-yl)-6-methoxybenzofuran-7-sulfonamide]	0.0664	0.0794	6.03	-4.28	-2.93
COc1cc2c(cc1S(=O)(=O)Nc1noc3cc(Cn4cccn4)nc(OC)c13)CCCC2 [Example 2, N-(6-((1H-Pyrazol-1-yl)methyl)-4-methoxyisoxazolo[4,5-c]pyridin-3-yl)-3-methoxy-5,6,7,8-tetrahydronaphthalene-2-sulfonamide]	0.219	0.118	5.38	-5.22	5.84
COc1cc2c(cc1S(=O)(=O)Nc1noc3cc(Cn4cccn4)nc(OC)c13)OCC2 [Example 59, N-(6-((1H-Pyrazol-1-yl)methyl)-4-methoxyisoxazolo[4,5-c]pyridin-3-yl)-5-methoxy-2,3-dihydrobenzofuran-6-sulfonamide]	0.171	0.327	4.62	-12.1	-7.66
